Holding throughout (type): cell-based
The test system of assay [1] is Ovarian Carcinoma 1A9PTX10. In words: Inhibition of cell growth, Ovarian Carcinoma 1A9PTX10 (MDR +, tubulin mutant).
In assay [2] the test system is Squamous Cell Carcinoma FADU. Kind of assay: Inhibition of cell growth, Squamous Cell Carcinoma FADU (MDR −, tubulin wild type). The conditions noted are these: concentration 0.05 ug/mL.
In assay [3] the test system is Neuroblastoma SK-N-AS. In words: Inhibition of cell growth, Neuroblastoma SK-N-AS (MDR −, tubulin wild type).
The subject of assay [4] is Breast Cancer MCF-7 NCI-AR. Kind of assay: Inhibition of cell growth, Breast Cancer MCF-7 NCI-AR (MDR +, tubulin wild type). As to conditions: for Inhibition: MCF-7 NCI-AR.
For assay [5], the system named is MDR sensitive cancer cell lines. Kind of assay: Inhibition of cell growth against MDR sensitive cancer cell lines. As to conditions: result in words.
[6] abbreviates: Homo sapiens, MCF7, MCF-7 NCI-AR, concentration 0.5 ug/mL.

Each structure is given as a SMILES string.

On to `CC(=O)O[C@H]1C(=O)[C@@]2(C)[C@H]([C@H](OC(=O)c3ccccc3)[C@]3(O)C[C@H](OC(=O)[C@H](O)[C@@H](NC(=O)c4ccccc4)c4ccccc4)C(C)=C1C3(C)C)[C@]1(OC(C)=O)CO[C@@H]1C[C@@H]2O` [Paclitaxel, reference compound], for which the Inhibition was 55% in assay [1] (1A9PTX10, concentration 5 ug/mL); 47% in assay [2]; 54% in assay [3] (concentration 0.1 ug/mL); 55% in assay [4] (concentration 40 ug/mL).

`C=CC1O[C@H]2C[C@H]3OC[C@@]3(OC(C)=O)[C@H]3[C@H](OC(=O)c4ccccc4)[C@]4(O)C[C@H](OC(=O)[C@H](O)[C@@H](NC(=O)c5ccccc5)c5ccccc5)C(C)=C([C@H](OC(C)=O)[C@H](O1)[C@]23C)C4(C)C` (stereo partly drawn) [TPI 251]: the “inhibition of cell growth against MDR sensitive cancer cell lines” value (“inhibition of cell growth” for short) in assay [5] is “excellent inhibition of cell growth”. The compound also came in with an inhibition at 0.25 µg/mL in assay [1] (Homo sapiens, 1A9/ptx-10, 1A9PTX10, concentration 0.25 ug/mL) of 93%. Moreover, the inhibition at 0.5 µg/mL in assay [1] (Homo sapiens, 1A9/ptx-10, 1A9PTX10, concentration 0.5 ug/mL) is 96%; in assay [4] (setting [6]), 45%. In assay [4] (Homo sapiens, MCF7, MCF-7 NCI-AR, concentration 1.0 ug/mL), this compound displayed an inhibition at 1 µg/mL of 65%. In assay [4] (Homo sapiens, MCF7, MCF-7 NCI-AR, concentration 2.0 ug/mL), this compound returned an inhibition at 2 µg/mL of 94%.

On to `C=CC1O[C@H]2C[C@H]3OC[C@@]3(OC(C)=O)[C@H]3[C@H](OC(=O)c4ccccc4)[C@]4(O)C[C@H](OC(=O)[C@H](O)[C@@H](NC(=O)c5ccccc5)c5ccccc5)C(C)=C([C@H](OC(C)=O)[C@H](O1)[C@]23C)C4(C)C` (stereo partly drawn) [TPI 285], for which the “inhibition of cell growth” value in assay [5] is given as “excellent inhibition of cell growth”. The Inhibition is on record as 41% in assay [4] (concentration 0.5 ug/mL), 51% in assay [4] (concentration 1.0 ug/mL) and 85% in assay [4] (concentration 2.0 ug/mL).

In the case of `C=CC1O[C@H]2C[C@H]3OC[C@@]3(OC(C)=O)[C@H]3[C@H](OC(=O)c4ccccc4)[C@]4(O)C[C@H](OC(=O)[C@H](O)[C@H](CC(C)C)NC(=O)OC(C)(C)C)C(C)=C([C@H](OC(C)=O)[C@H](O1)[C@]23C)C4(C)C` (stereo partly drawn) [TPI 287, 7,9-acrolein acetal-10-α-acetyl-2′-R,S-hydroxy-3′-S-isobutyl-3′-N-t-butoxy carbonyl taxane], the “inhibition of cell growth” value in assay [5] is “excellent inhibition of cell growth”. The compound further gave an inhibition at 0.1 µg/mL in assay [1] (Homo sapiens, 1A9/ptx-10, 1A9PTX10, concentration 0.1 ug/mL) of 51%. Also, the inhibition at 0.2 µg/mL in assay [1] (Homo sapiens, 1A9/ptx-10, 1A9PTX10, concentration 0.2 ug/mL) was 85%. Moreover, the inhibition at 0.05 µg/mL in assay [2] (Homo sapiens) is 56%; in assay [3] (Homo sapiens, concentration 0.05 ug/mL) it was 58%. The same compound came in with an inhibition at 0.031 µg/mL in assay [4] (Homo sapiens, MCF7, MCF-7 NCI-AR, concentration 0.031 ug/mL) of 13%. For the same compound, in assay [4] (Homo sapiens, MCF7, MCF-7 NCI-AR, concentration 0.061 ug/mL), at 0.061 µg/mL the inhibition was 22%. For the same compound, 0.125 µg/mL produced 37% inhibition in assay [4] (Homo sapiens, MCF7, MCF-7 NCI-AR, concentration 0.125 ug/mL). Besides, the inhibition at 0.25 µg/mL in assay [4] (Homo sapiens, MCF7, MCF-7 NCI-AR, concentration 0.25 ug/mL) was determined as 47%. In assay [4] (setting [6]), at 0.5 µg/mL the inhibition was 80%.

As usually defined, the Inhibition is the change of the read-out against control, counted positive when it falls. The term inhibition denotes the change of the read-out against control, counted positive when it falls. Higher therefore signals a strong effect.

These data come from patent US10238621B2, “9,10-α,α-OH-taxane analogs and methods for production thereof” (priority 2003, dated 2019).
